The source made the active and inactive calls. The calls are words filed in the database; no cut-off is given here.
Columns and labels:
[1] = test system: Persicaria lapathifolia; test: Herbicidal activity against Persicaria lapathifolia assessed as seedling death under green house at 4 kg/ha at 25 degC measured after 4 weeks; type: functional, organism-based
[2] = test system: Amaranthus viridis; test: Herbicidal activity against Amaranthus viridis assessed as seedling death under green house at 4 kg/ha at 25 degC measured after 4 weeks; type: functional, organism-based
[3] = test system: Digitaria ciliaris; test: Herbicidal activity against Digitaria ciliaris assessed as seedling death under green house at 4 kg/ha at 25 degC measured after 4 weeks; type: functional, organism-based
[4] = test system: Digitaria ciliaris; test: Herbicidal activity against Digitaria ciliaris assessed as seedling death under green house at 0.25 kg/ha at 25 degC measured after 4 weeks; type: functional, organism-based
[5] = test system: Persicaria lapathifolia; test: Herbicidal activity against Persicaria lapathifolia assessed as seedling death under green house at 1 kg/ha at 25 degC measured after 4 weeks; type: functional, organism-based
[6] = test system: Echinochloa crus-galli; test: Herbicidal activity against Echinochloa crus-galli (barnyard grass) assessed as seedling death under green house at 0.25 kg/ha at 25 degC measured after 4 weeks; type: functional, organism-based
[7] = test system: Echinochloa crus-galli; test: Herbicidal activity against Echinochloa crus-galli (barnyard grass) assessed as seedling death under green house at 0.5 kg/ha at 25 degC measured after 4 weeks; type: functional, organism-based
[8] = test system: Amaranthus viridis; test: Herbicidal activity against Amaranthus viridis assessed as seedling death under green house at 1 kg/ha at 25 degC measured after 4 weeks; type: functional, organism-based
[9] = test system: Echinochloa crus-galli; test: Herbicidal activity against Echinochloa crus-galli (barnyard grass) assessed as seedling death under green house at 1 kg/ha at 25 degC measured after 4 weeks; type: functional, organism-based
[10] = test system: Glycine max; test: Toxicity in Glycine max cv. Tamahomare (soybean) assessed as seedling death under green house at 0.25 kg/ha at 25 degC measured after 4 weeks by crop selectivity assay; type: organism-based; conditions: in vivo, 672 h
[11] = test system: Amaranthus viridis; test: Herbicidal activity against Amaranthus viridis assessed as seedling death under green house at 0.5 kg/ha at 25 degC measured after 4 weeks; type: functional, organism-based
[12] = test system: Digitaria ciliaris; test: Herbicidal activity against Digitaria ciliaris assessed as seedling death under green house at 1 kg/ha at 25 degC measured after 4 weeks; type: functional, organism-based
[13] = test system: Triticum aestivum; test: Toxicity in Triticum aestivum cv. Nohrin-61 (wheat) assessed as seedling death under green house at 0.25 kg/ha at 25 degC measured after 4 weeks by crop selectivity assay; type: organism-based; conditions: in vivo, 672 h
[14] = test system: Gossypium hirsutum; test: Toxicity in Gossypium hirsutum cv. Hakushuu (cotton) assessed as seedling death under green house at 0.25 kg/ha at 25 degC measured after 4 weeks by crop selectivity assay; type: organism-based; conditions: in vivo, 672 h
[15] = test system: Digitaria ciliaris; test: Herbicidal activity against Digitaria ciliaris assessed as seedling death under green house at 0.5 kg/ha at 25 degC measured after 4 weeks; type: functional, organism-based
[16] = test system: Echinochloa crus-galli; test: Herbicidal activity against Echinochloa crus-galli (barnyard grass) assessed as seedling death under green house at 4 kg/ha at 25 degC measured after 4 weeks; type: functional, organism-based
[17] = test system: Amaranthus viridis; test: Herbicidal activity against Amaranthus viridis assessed as seedling death under green house at 0.25 kg/ha at 25 degC measured after 4 weeks; type: functional, organism-based
[18] = test system: Persicaria lapathifolia; test: Herbicidal activity against Persicaria lapathifolia assessed as seedling death under green house at 0.25 kg/ha at 25 degC measured after 4 weeks; type: functional, organism-based
[19] = test system: Triticum aestivum; test: Toxicity in Triticum aestivum cv. Nohrin-61 (wheat) assessed as seedling death under green house at 0.5 kg/ha at 25 degC measured after 4 weeks by crop selectivity assay; type: organism-based; conditions: in vivo, 672 h
[20] = test system: Gossypium hirsutum; test: Toxicity in Gossypium hirsutum cv. Hakushuu (cotton) assessed as seedling death under green house at 0.5 kg/ha at 25 degC measured after 4 weeks by crop selectivity assay; type: organism-based; conditions: in vivo, 672 h
[21] = test system: Glycine max; test: Toxicity in Glycine max cv. Tamahomare (soybean) assessed as seedling death under green house at 0.5 kg/ha at 25 degC measured after 4 weeks by crop selectivity assay; type: organism-based; conditions: in vivo, 672 h
[22] = test system: Persicaria lapathifolia; test: Herbicidal activity against Persicaria lapathifolia assessed as seedling death under green house at 0.5 kg/ha at 25 degC measured after 4 weeks; type: functional, organism-based
[23] = test system: Gossypium hirsutum; test: Toxicity in Gossypium hirsutum cv. Hakushuu (cotton) assessed as seedling death under green house at 1 kg/ha at 25 degC measured after 4 weeks by crop selectivity assay; type: organism-based; conditions: in vivo, 672 h
[24] = test system: Glycine max; test: Toxicity in Glycine max cv. Tamahomare (soybean) assessed as seedling death under green house at 1 kg/ha at 25 degC measured after 4 weeks by crop selectivity assay; type: organism-based; conditions: in vivo, 672 h
[25] = test system: Triticum aestivum; test: Toxicity in Triticum aestivum cv. Nohrin-61 (wheat) assessed as seedling death under green house at 1 kg/ha at 25 degC measured after 4 weeks by crop selectivity assay; type: organism-based; conditions: in vivo, 672 h
[26] = test system: Echinochloa crus-galli; test: Herbicidal activity against Echinochloa crus-galli (barnyard grass) assessed as seedling death under green house at 2 kg/ha at 25 degC measured after 4 weeks; type: functional, organism-based
[27] = test system: Digitaria ciliaris; test: Herbicidal activity against Digitaria ciliaris assessed as seedling death under green house at 2 kg/ha at 25 degC measured after 4 weeks; type: functional, organism-based

SMILES | Activity [1] | Activity [2] | Activity [5] | Activity [7] | Activity [8] | Activity [9] | Activity [12] | Activity [15] | Activity [22] | also measured
CCCCCN(C(=O)COc1onc(C(F)(F)F)c1C)c1ccccc1 | inactive | inactive |  |  |  |  |  |  |  | Activity [3]: inactive
CN(C(=O)COc1cc(C(C)(C)C)no1)c1ccccc1 | inactive | inactive |  |  |  |  |  |  |  | Activity [3]: inactive
Cc1c(C(F)(F)F)noc1OCC(=O)N(C)c1ccccc1Br |  |  | Active | Active | Active | Active | Active | Active |  | Activity [4]: Active; Activity [6]: Active; Activity [10]: Non-toxic; Activity [11]: Active; Activity [13]: Non-toxic; Activity [14]: Non-toxic
Cc1c(C(F)(F)F)noc1OCC(=O)N(C)C(C)(C)C | inactive | inactive |  |  |  |  |  |  |  | Activity [16]: inactive; Activity [3]: inactive
Cc1c(C(F)(F)F)noc1OCC(=O)N(C)c1cccc(F)c1 |  |  | Active | Active | Active | Active | Active | Active |  | Activity [4]: Active; Activity [6]: Active; Activity [10]: Non-toxic; Activity [11]: Active; Activity [17]: Active; Activity [13]: Non-toxic; Activity [14]: Non-toxic
Cc1cccc(C)c1N(C)C(=O)COc1onc(C(F)(F)F)c1C | inactive | inactive |  |  |  |  |  |  |  | Activity [16]: inactive; Activity [3]: inactive
CN(C(=O)COc1nc2ccccc2s1)c1ccccc1 [MEFENACET] |  |  |  |  |  |  |  |  | inactive | Activity [18]: inactive; Activity [19]: Non-toxic; Activity [10]: Non-toxic; Activity [20]: Non-toxic; Activity [17]: inactive; Activity [13]: Non-toxic; Activity [21]: Non-toxic; Activity [14]: Non-toxic
CN(C(=O)COc1cc(C(F)(F)F)no1)c1ccccc1 |  |  |  |  |  | Active | Active | Active |  | Activity [23]: Non-toxic; Activity [19]: Non-toxic; Activity [20]: Non-toxic; Activity [21]: Non-toxic
CN(C(=O)COc1onc(-c2ccccc2)c1Br)c1ccccc1 | inactive | inactive |  |  |  |  |  |  |  | 
Cc1c(C(F)(F)F)noc1OCC(=O)N(C)c1ccccc1 |  |  |  | Active | Active | Active | Active | Active |  | Activity [19]: Non-toxic; Activity [24]: Non-toxic; Activity [25]: Non-toxic; Activity [20]: Non-toxic; Activity [21]: Non-toxic
CCc1ccccc1N(C)C(=O)COc1onc(C(F)(F)F)c1C |  |  | inactive |  |  | Active | Active | Active | inactive | 
Cc1ccc(C)c(N(C)C(=O)COc2onc(C(F)(F)F)c2C)c1 |  |  | inactive | Active |  | Active |  |  | inactive | 
CN(C(=O)COc1nnc(C(F)(F)F)s1)c1ccccc1 |  |  |  |  |  |  |  |  | inactive | Activity [4]: inactive; Activity [18]: inactive; Activity [19]: Non-toxic; Activity [10]: Non-toxic; Activity [11]: inactive; Activity [20]: Non-toxic; Activity [17]: inactive; Activity [13]: Non-toxic; Activity [21]: Non-toxic; Activity [14]: Non-toxic
CCc1noc(OCC(=O)N(C)c2ccccc2)c1-c1ccccc1 | inactive |  |  |  |  |  |  |  |  | 
Cc1c(C(F)(F)F)noc1OCC(=O)N(C)c1ccccc1-c1ccccc1 | inactive | inactive |  |  |  |  |  |  |  | Activity [16]: inactive; Activity [3]: inactive
Cc1c(C(F)(F)F)noc1OCC(=O)N(C)c1ccccc1C(C)C |  |  | inactive |  | inactive | Active | Active |  | inactive | Activity [11]: inactive
Cc1c(C(F)(F)F)noc1OCC(=O)Nc1ccccc1 | inactive | inactive |  |  |  |  |  |  |  | Activity [16]: inactive; Activity [3]: inactive
Cc1c(C(F)(F)F)noc1OCC(=O)N(C)c1ccccc1Cl |  |  | Active | Active | Active | Active | Active | Active |  | Activity [4]: Active; Activity [6]: Active; Activity [11]: Active; Activity [17]: Active; Activity [14]: Non-toxic
Cc1c(C(F)(F)F)noc1OCC(=O)N(C)c1c(Cl)cccc1Cl | inactive | inactive |  |  |  |  |  |  |  | 
Cc1c(C(F)(F)F)noc1OCC(=O)N(C)c1ccc(Cl)cc1 |  |  | inactive |  | inactive | Active | Active |  | inactive | Activity [11]: inactive
CN(C(=O)COc1onc(C(F)(F)F)c1-c1ccccc1)c1ccccc1 |  |  |  | Active |  | Active | Active | Active |  | Activity [23]: Non-toxic; Activity [19]: Non-toxic; Activity [24]: Non-toxic; Activity [25]: Non-toxic; Activity [20]: Non-toxic; Activity [21]: Non-toxic
CCc1ccc(N(C)C(=O)COc2onc(C(F)(F)F)c2C)cc1 |  |  | inactive | Active |  | Active | Active | Active | inactive | 
CN(C(=O)COc1cc(-c2ccccc2)no1)c1ccccc1 | inactive | inactive |  |  |  |  |  |  |  | Activity [16]: inactive; Activity [3]: inactive
Cc1c(C(F)(F)F)noc1OCC(=O)N(C)c1ccc([N+](=O)[O-])cc1 | inactive | inactive |  |  |  |  |  |  |  | 
CCc1c(C(F)(F)F)noc1OCC(=O)N(C)c1ccccc1 |  |  |  | Active | Active | Active | Active | Active |  | Activity [20]: Non-toxic; Activity [21]: Non-toxic
Cc1c(C(F)(F)F)noc1OCC(=O)N(C)c1ccccc1I |  |  |  | Active | Active | Active | Active | Active | inactive | Activity [11]: Active
CCCCCCN(C)C(=O)COc1onc(C(F)(F)F)c1C |  |  |  |  |  |  |  |  |  | Activity [26]: Active; Activity [27]: Active
CCCc1ccc(N(C)C(=O)COc2onc(C(F)(F)F)c2C)cc1 |  |  | inactive | Active |  | Active |  |  | inactive | 
Cc1c(C(F)(F)F)noc1OCC(=O)N(C)c1ccc(Br)cc1 |  |  | inactive |  | inactive | Active | Active | Active | inactive | Activity [11]: inactive
Cc1c(C(F)(F)F)noc1OCC(=O)N(C)c1c(F)cccc1F |  |  | inactive |  |  | Active |  |  | inactive | 
